Test results taken from ChEMBL document CHEMBL5528029, “Design, synthesis, and biological evaluation of novel discoidin domain receptor inhibitors for the treatment of lung adenocarcinoma and pulmonary fibrosis” (Eur J Med Chem, 2024).
Activity calls are given as the source filed them. No cut-off for these calls is given here.

What was measured:
[1] = test system: NCI-H1975; assay: Antiproliferative activity against human NCI-H1975 cells incubated for 72 hrs by MTT assay; conditions: NCI-H1975, 72 h
[2] = biological target: BDNF/NT-3 growth factors receptor (Homo sapiens) (UniProt Q16620); assay: Inhibition of TRK-B (unknown origin) assessed as remaining activity at 1 uM using fluorescein-poly GAT as substrate in presence of ATP by TR-FRET assay relative to control
[3] = biological target: High affinity nerve growth factor receptor (Homo sapiens) (UniProt P04629); assay: Inhibition of TRK-A (unknown origin) assessed as remaining activity at 1 uM using fluorescein-poly GAT as substrate in presence of ATP by TR-FRET assay relative to control
[4] = biological target: T1, Discoidin domain-containing receptor 2 (Homo sapiens, UniProt Q16832); assay: Inhibition of DDR2 (unknown origin)
T1 sequence (Q16832 whole entry): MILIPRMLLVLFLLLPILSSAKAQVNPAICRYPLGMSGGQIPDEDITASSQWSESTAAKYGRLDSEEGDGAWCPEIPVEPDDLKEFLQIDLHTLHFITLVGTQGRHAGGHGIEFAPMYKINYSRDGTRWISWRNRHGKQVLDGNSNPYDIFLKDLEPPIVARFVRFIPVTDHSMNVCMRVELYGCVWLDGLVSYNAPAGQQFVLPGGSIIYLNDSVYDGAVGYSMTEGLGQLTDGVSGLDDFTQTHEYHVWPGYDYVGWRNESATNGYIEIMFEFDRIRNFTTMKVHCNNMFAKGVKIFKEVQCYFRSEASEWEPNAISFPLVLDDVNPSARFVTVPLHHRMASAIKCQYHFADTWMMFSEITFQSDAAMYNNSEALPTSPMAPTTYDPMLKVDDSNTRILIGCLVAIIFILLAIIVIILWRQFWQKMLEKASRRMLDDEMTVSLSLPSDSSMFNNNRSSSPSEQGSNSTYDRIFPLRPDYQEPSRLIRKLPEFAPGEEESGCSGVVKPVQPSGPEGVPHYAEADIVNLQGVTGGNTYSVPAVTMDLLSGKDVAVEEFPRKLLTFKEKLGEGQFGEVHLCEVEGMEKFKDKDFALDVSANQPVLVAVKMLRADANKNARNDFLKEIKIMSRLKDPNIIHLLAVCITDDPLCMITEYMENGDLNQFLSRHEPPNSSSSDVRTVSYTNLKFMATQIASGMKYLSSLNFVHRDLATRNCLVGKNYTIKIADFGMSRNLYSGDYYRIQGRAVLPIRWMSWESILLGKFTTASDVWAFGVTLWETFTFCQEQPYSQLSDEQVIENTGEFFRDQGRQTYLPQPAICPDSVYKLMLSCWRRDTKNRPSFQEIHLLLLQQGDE

[5] = test system: A549; assay: Antiproliferative activity against human A549 cells incubated for 72 hrs by MTT assay; conditions: A549, 72 h
[6] = biological target: NT-3 growth factor receptor (Homo sapiens) (UniProt Q16288); assay: Inhibition of TRK-C (unknown origin) assessed as remaining activity at 1 uM using fluorescein-poly GAT as substrate in presence of ATP by TR-FRET assay relative to control
[7] = biological target: T2, Discoidin domain-containing receptor 2 (Homo sapiens) (UniProt Q16832); assay: Inhibition of DDR2 (unknown origin) assessed as remaining activity at 1 uM using fluorescein-poly GAT as substrate in presence of ATP by TR-FRET assay relative to control
T2 sequence (whole entry): T1 sequence (Q16832 whole entry)

[8] = Antiproliferative activity against human SPCA1 cells incubated for 72 hrs by MTT assay; conditions: SPCA1, 72 h
[9] = test system: A549; assay: Inhibition of epithelial-to-mesenchymal transition in human A549 cells assessed as downregulation of N-cadherin protein expression at 50 to 200 nM by Western blotting analysis; format: functional, cell-based; conditions: dose 50-200 nM
[10] = test system: A549; assay: Antitumor activity against human A549 cells xenografted in SPF BALB/c nude mouse assessed as tumor growth inhibition at 30 mg/kg, ip administered for 14 days; format: functional, organism-based; conditions: time 14.0 day
[11] = test system: Mus musculus; assay: Antifibrotic activity against bleomycin-induced C57BL/6 mouse model of pulmonary fibrosis assessed as increase in animal survival at 30 mg/kg, ip administered once daily for 21 days; format: functional, organism-based; conditions: time 21.0 day
[12] = test system: NIH3T3; assay: Inhibition of TGF-beta1 induced mouse NIH3T3 cells activation assessed as reduction in collagen-I accumulation at 5 uM preincubated with TGF-beta1 followed by compound addition by immunofluorescence staining based assay; format: functional, cell-based
[13] = test system: A549; assay: Effect on AKT1 level in human A549 cells at 50 to 200 nM by Western blotting analysis; format: functional, cell-based; conditions: dose 50-200 nM
[14] = test system: NIH3T3; assay: Inhibition of TGF-beta1 induced mouse NIH3T3 cells activation assessed as reduction in alpha-SMA level at 5 uM preincubated with TGF-beta1 followed by compound addition by immunofluorescence staining based assay; format: functional, cell-based
[15] = test system: A549; assay: Effect on DDR1 level in human A549 cells at 50 to 200 nM by Western blotting analysis; format: functional, cell-based; conditions: dose 50-200 nM
[16] = test system: A549; assay: Inhibition of epithelial-to-mesenchymal transition in human A549 cells assessed as upregulation of E-cadherin protein expression at 50 to 200 nM by Western blotting analysis; format: functional, cell-based; conditions: dose 50-200 nM
[17] = test system: A549; assay: Effect on ERK1/2 level in human A549 cells at 50 to 200 nM by Western blotting analysis; format: functional, cell-based; conditions: dose 50-200 nM

Sequence of BDNF/NT-3 growth factors receptor (Homo sapiens) (Q16620 32-822 limits assumed): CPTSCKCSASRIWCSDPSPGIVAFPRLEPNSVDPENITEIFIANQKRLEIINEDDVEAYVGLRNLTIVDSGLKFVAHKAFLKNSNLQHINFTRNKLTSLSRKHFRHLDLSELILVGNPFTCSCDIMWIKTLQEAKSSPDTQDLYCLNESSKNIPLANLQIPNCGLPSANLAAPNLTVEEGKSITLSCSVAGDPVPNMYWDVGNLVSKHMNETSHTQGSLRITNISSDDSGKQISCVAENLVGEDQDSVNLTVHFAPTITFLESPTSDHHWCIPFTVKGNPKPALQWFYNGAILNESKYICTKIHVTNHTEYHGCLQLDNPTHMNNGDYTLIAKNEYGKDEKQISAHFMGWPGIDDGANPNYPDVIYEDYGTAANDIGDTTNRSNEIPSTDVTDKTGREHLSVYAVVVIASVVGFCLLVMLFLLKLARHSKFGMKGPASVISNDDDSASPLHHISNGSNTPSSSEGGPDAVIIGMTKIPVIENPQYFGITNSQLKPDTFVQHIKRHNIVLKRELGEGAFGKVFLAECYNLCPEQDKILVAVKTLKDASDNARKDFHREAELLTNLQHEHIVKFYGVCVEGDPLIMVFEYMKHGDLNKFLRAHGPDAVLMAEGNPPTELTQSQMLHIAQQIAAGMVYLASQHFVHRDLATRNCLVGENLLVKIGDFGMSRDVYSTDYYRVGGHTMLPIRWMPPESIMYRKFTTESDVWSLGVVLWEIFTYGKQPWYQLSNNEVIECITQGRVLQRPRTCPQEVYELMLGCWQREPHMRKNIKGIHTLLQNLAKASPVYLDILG
Sequence of NT-3 growth factor receptor (Homo sapiens) (Q16288 32-839 limits assumed): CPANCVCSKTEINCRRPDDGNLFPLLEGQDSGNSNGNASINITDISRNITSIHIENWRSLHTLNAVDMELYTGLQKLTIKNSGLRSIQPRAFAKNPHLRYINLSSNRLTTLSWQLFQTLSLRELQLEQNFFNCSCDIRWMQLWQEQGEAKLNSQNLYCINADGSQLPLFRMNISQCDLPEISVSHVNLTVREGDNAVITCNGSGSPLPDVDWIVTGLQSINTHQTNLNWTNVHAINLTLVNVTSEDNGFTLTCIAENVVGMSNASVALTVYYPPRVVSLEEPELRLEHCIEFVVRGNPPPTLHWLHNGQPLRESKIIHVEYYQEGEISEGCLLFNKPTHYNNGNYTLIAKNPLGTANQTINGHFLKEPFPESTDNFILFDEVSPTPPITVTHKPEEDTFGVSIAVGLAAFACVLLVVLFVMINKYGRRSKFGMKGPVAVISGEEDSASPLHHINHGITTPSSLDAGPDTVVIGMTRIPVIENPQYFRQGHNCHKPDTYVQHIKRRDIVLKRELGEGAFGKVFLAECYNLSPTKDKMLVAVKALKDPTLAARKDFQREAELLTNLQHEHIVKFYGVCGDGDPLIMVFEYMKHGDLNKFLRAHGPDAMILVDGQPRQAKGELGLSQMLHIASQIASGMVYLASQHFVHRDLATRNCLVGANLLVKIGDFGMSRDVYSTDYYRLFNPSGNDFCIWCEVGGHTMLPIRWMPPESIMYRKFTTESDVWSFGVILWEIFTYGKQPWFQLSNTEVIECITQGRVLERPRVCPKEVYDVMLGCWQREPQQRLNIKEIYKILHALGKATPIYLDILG
Sequence of High affinity nerve growth factor receptor (Homo sapiens) (P04629 33-796 limits assumed): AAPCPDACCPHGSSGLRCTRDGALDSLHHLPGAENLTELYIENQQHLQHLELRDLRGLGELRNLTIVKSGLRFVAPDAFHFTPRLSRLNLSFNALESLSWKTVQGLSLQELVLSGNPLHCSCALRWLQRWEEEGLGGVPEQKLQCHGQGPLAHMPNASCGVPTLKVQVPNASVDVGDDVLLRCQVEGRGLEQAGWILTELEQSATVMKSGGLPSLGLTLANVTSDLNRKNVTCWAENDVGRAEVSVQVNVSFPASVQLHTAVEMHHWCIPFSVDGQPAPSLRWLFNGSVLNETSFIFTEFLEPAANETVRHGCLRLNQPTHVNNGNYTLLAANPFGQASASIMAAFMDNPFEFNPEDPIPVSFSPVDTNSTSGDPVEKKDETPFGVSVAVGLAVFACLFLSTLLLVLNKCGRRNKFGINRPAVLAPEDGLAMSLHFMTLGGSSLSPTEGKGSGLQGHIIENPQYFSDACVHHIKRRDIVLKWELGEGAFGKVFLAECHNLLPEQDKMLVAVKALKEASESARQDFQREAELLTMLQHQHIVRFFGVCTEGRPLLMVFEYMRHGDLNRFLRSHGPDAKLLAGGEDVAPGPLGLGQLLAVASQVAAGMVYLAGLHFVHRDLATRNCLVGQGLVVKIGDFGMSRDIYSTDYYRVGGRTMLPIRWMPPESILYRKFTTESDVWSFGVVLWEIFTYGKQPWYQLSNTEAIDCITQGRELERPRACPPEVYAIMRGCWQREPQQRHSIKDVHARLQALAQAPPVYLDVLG

| Activity [2] | Activity [3] | Activity [6] | Activity [7] | Compound | other results |
| --- | --- | --- | --- | --- | --- |
| 72.2% | 90.4% | 89.7% | 99.5% | COc1ccc2c(c1)c(CNC(=O)Nc1ccc(C(F)(F)F)cc1)cn2CC(=O)N1CCCC1 | – |
| 85.7% | 82.3% | 92.5% | 83.2% | COc1ccc2c(c1)c(CNC(=O)Nc1ccc(C)cc1)cn2CC(=O)N1CCCCC1 | – |
| 102% | 113% | 88.1% | 91.5% | COc1ccc(NC(=O)NCc2cn(CC(=O)N3CCCC3)c3ccc(OC)cc23)cc1 | – |
| 74.9% | 91.6% | 105% | 73.8% | COc1ccc2c(c1)c(CNC(=O)Nc1ccc(C(F)(F)F)cc1)cn2CC(=O)N1CCCCC1 | – |
| 80.1% | 92.7% | 101% | 80.6% | COc1ccc(NC(=O)NCc2cn(CC(=O)N3CCCCC3)c3ccc(F)cc23)cc1 | – |
| 108% | 108% | 94.5% | 93.4% | COc1ccc(NC(=O)NCc2cn(CC(=O)N3CCN(C)CC3)c3ccc(OC)cc23)cc1 | – |
| 87.4% | 92.1% | 92.7% | 72.4% | COc1ccc(NC(=O)NCc2cn(CC(=O)N3CCCCC3)c3ccc(OC)cc23)cc1 | – |
| 83.8% | 71.6% | 110% | 86.3% | COc1ccc(NC(=O)NCc2cn(CC(=O)N3CCCC3)c3ccc(F)cc23)cc1 | – |
| 84% | 81.3% | 87.5% | 89.6% | COc1ccc2c(c1)c(CNC(=O)Nc1ccc(C)cc1)cn2CC(=O)N1CCOCC1 | – |
| 107% | 90.8% | 82.7% | 79.4% | COc1ccc(NC(=O)NCc2cn(CC(=O)N3CCOCC3)c3ccc(F)cc23)cc1 | – |

Continued, compound first:

| Compound | Activity [2] | Activity [3] | Activity [6] | Activity [7] | other results |
| --- | --- | --- | --- | --- | --- |
| O=C(NCc1cn(CC(=O)N2CCCC2)c2ccc(F)cc12)Nc1ccc(F)cc1F | 69.5% | 95.7% | 75.2% | 32.5% | IC50 [1]: 5340 nM; IC50 [4]: 1670 nM; IC50 [5]: 11200 nM; IC50 [8]: 10500 nM |
| Cc1nc(Nc2ncc(C(=O)Nc3c(C)cccc3Cl)s2)cc(N2CCN(CCO)CC2)n1 [DASATINIB ANHYDROUS] | – | – | – | – | IC50 [1]: 1260 nM; inhibition [9]: Active; Activity [10]: Active; Activity [11]: Active; inhibition [12]: Active; Activity [13]: inactive; IC50 [5]: 2550 nM; inhibition [14]: Active; Activity [15]: inactive; inhibition [16]: Active; Activity [17]: inactive; IC50 [8]: 2460 nM |
| O=C(NCc1cn(CC(=O)N2CCCCC2)c2ccc(F)cc12)Nc1ccc(F)cc1F | 106% | 88.2% | 83.5% | 41.3% | IC50 [1]: 3860 nM; IC50 [4]: 1190 nM; IC50 [5]: 1670 nM; IC50 [8]: 1730 nM |
| O=C(NCc1cn(CC(=O)N2CCOCC2)c2ccc(F)cc12)Nc1ccc(F)cc1F | 72.8% | 93.8% | 82.7% | 53.5% | IC50 [1]: 1980 nM; IC50 [4]: 450 nM; IC50 [5]: 3720 nM; IC50 [8]: 2820 nM |
| COc1ccc2c(c1)c(CNC(=O)Nc1ccc(F)cc1F)cn2CC(=O)N1CCCC1 | 104% | 74% | 76.2% | 50.8% | IC50 [1]: 3720 nM; IC50 [4]: 1330 nM; IC50 [5]: 6960 nM; IC50 [8]: 7350 nM |
| O=C(NCc1cn(CC(=O)N2CCOCC2)c2ccc(F)cc12)Nc1ccccc1Cl | 83.8% | 78% | 87.4% | 54.5% | – |
| COc1ccc2c(c1)c(CNC(=O)Nc1ccccc1Cl)cn2CC(=O)N1CCN(C)CC1 | 93.4% | 94% | 82.9% | 55.9% | – |
| O=C(NCc1cn(CC(=O)N2CCCCC2)c2ccc(F)cc12)Nc1ccccc1Cl | 75.7% | 90.3% | 84.2% | 48% | – |
